The source of these data is ChEMBL document CHEMBL5727499, “Derivatives and methods of treating hepatitis B infections” (2020).

“Also recorded” adds a separate entry of the source.

One assay in a line: HBV Replication Inhibition Assay: HBV replication inhibition by the compounds of this invention could be determined in cells infected or transfected with HBV, or cells with stably integrated HBV, such as HepG2.2.15 cells (Sells et al. 1987). In this example, HepG2.2.15 cells were maintained in cell culture medium containing 10% fetal bovine serum (FBS), Geneticin, L-glutamine, penicillin and streptomycin. HepG2.2.15 cells could be seeded in 96-well plates at a density of 40,000 cells/well and be treated with serially diluted compounds at a final DMSO concentration of 0.5% either alone or in combination by adding drugs in a checker box format. Cells were incubated with compounds for three days, after which medium was removed and fresh medium containing compounds was added to cells and incubated for another three days. At day 6, supernatant was removed and treated with DNase at 37° C. for 60 minutes, followed by enzyme inactivation at 75° C. for 15 minutes. Encapsidated HBV DNA was released from the virions and covalently linked HBV polymerase by incubating in lysis buffer (Affymetrix QS0010) containing 2.5 μg proteinase K at 50° C. for 40 minutes. HBV DNA was denatured by addition of 0.2 M NaOH and detected using a branched DNA (BDNA) QuantiGene assay kit according to manufacturer recommendation (Affymetrix). HBV DNA levels could also be quantified using qPCR, based on amplification of encapsidated HBV DNA extraction with QuickExtraction Solution (Epicentre Biotechnologies) and amplification of HBV DNA using HBV specific PCR probes that can hybridize to HBV DNA and a fluorescently labeled probe for quantitation. In addition, cell viability of HepG2.2.15 cells incubated with test compounds alone or in combination was determined by using CellTitre-Glo reagent according to the manufacturer protocol (Promega). The mean background signal from wells containing only culture medium was subtracted from all other samples, and percent inhibition at each compound concentration was calculated by normalizing to signals from HepG2.2.15 cells treated with 0.5% DMSO using equation E1.% inhibition=(DMSOave−Xi)/DMSOave×100% E1:where DMSOave is the mean signal calculated from the wells that were treated with DMSO control (0% inhibition control) and Xi is the signal measured from the individual wells. EC50 values, effective concentrations that achieved 50% inhibitory effect, were determined by non-linear fitting using Graphpad Prism software (San Diego, Calif.) and equation E2Y=Y min+(Y max−Y min)/(1+10(Log EC50−X)×HillSlope) E2:where Y represents percent inhibition values and X represents the logarithm of compound concentrations.
Details: not given
For the compound `CC1Cc2[nH]nc(C3CCCO3)c2CN1C(=O)Nc1ccc(F)c(Br)c1` (configuration not stated), the EC50 result was “in the range around 55 nM; also recorded: in the range around 300 nM”. Still for that read-out and setting: with `CC1Cc2[nH]nc(C3CCC3)c2CN1C(=O)Nc1cccc(C#N)c1F` (configuration not stated) the entry was “in the range around 300 nM”; with `CC1Cc2[nH]nc(C3CCCC3)c2CN1C(=O)Nc1ccnc(Br)c1F` (configuration not stated), “in the range around 55 nM”. Regarding `Cc1cc(NC(=O)N2Cc3c(C4CCCO4)n[nH]c3CC2C)ccc1F` (configuration not stated), the EC50 result was “in the range around 55 nM; also recorded: in the range around 300 nM”. Still for that read-out and setting: with `CC1Cc2[nH]nc(C3CCCC3)c2CN1C(=O)Nc1ccc(F)c(Br)c1` (configuration not stated) the entry was “in the range around 55 nM”.

As to `Cc1cccc(NC(=O)N2Cc3c(C4CCCC4)n[nH]c3CC2C)c1` (configuration not stated), the EC50 entry is “in the range around 55 nM”.

Consider `CC1Cc2[nH]nc(C3CCCC3)c2CN1C(=O)Nc1ccc(F)c(C#N)c1` (configuration not stated), for which the 50% effective concentration (EC50) result is “in the range around 55 nM”. Same read-out and setting: with `CC1Cc2[nH]nc(C3CCCO3)c2CN1C(=O)Nc1ccc(F)c(C#N)c1` (configuration not stated) the entry was “in the range around 300 nM”. With `Cc1cc(NC(=O)N2Cc3c(C4CCCC4)n[nH]c3CC2C)ccc1F` (configuration not stated), the concentration giving a half-maximal response (EC50) result was “in the range around 55 nM”.

Still in this assay, the particulars now being: HepG2.2.15.
As to `CCCc1n[nH]c2c1CN(C(=O)Nc1cccc(Cl)c1)CC2`, the EC50 result was “in the range around 300 nM”. On to `Cc1cccc(NC(=O)N2CCc3[nH]nc(C45CCCC4C5)c3C2)c1` (configuration not stated), for which the EC50 entry is “in the range around 55 nM”.

In the case of `O=C(Nc1cccc(Cl)c1)N1CCc2[nH]nc(C3CCCO3)c2C1` (configuration not stated), the EC50 entry was “in the range around 55 nM”. On the same count and under the same terms, with `CC1Cc2[nH]nc(C3CCC3)c2CN1C(=O)Nc1cccc(C#N)c1F` (configuration not stated) the entry was “in the range around 300 nM”; with `CCC(C)(C)c1n[nH]c2c1CN(C(=O)Nc1cccc(Cl)c1)CC2`, “in the range around 300 nM”; with `O=C(Nc1ccc(F)c(Cl)c1)N1CCc2[nH]nc(C34CCCC3C4)c2C1` (configuration not stated), “in the range around 55 nM”. For `Cc1cccc(NC(=O)N2Cc3c(C4CCCO4)n[nH]c3CC2C)c1` (configuration not stated), the EC50 result was “in the range around 300 nM”. The same measure, in the same setting: with `O=C(Nc1cccc(Cl)c1)N1CCc2[nH]nc(C3=CC(F)CC3)c2C1` (configuration not stated) the entry was “in the range around 55 nM”; with `O=C(Nc1cccc(Br)c1F)N1CCc2[nH]nc(C34CCCC3C4)c2C1` (configuration not stated), “in the range around 55 nM”; with `CCCC(F)(F)c1n[nH]c2c1CN(C(=O)Nc1cccc(Cl)c1)CC2`, “in the range around 55 nM”. As for `N#Cc1cc(NC(=O)N2CCc3[nH]nc(C4CCC4)c3C2)ccc1F`, the EC50 entry is “in the range around 55 nM”. On the same count and under the same terms, with `O=C(Nc1cccc(Cl)c1)N1CCc2[nH]nc(Br)c2C1` the figure was over 10000 nM.

In the case of `CC1Cc2[nH]nc(C3CCCC3)c2CN1C(=O)Nc1ccnc(Br)c1F` (configuration not stated), the EC50 entry is “in the range around 55 nM”. Same read-out and setting: with `O=C(Nc1cccc(Cl)c1)N1CCc2[nH]nc(C3=CCCCC3)c2C1` the entry was “in the range around 55 nM”. On the same count and under the same terms, with `O=C(Nc1cccc(Cl)c1)N1CCc2[nH]nc(C3(C(F)(F)F)CC3)c2C1` the entry was “in the range around 300 nM”; with `O=C(Nc1ccnc(Cl)c1F)N1CCc2[nH]nc(C34CCCC3C4)c2C1` (configuration not stated), “in the range around 55 nM”; with `O=C(Nc1cccc(Cl)c1)N1CCc2[nH]nc(C3CCC(O)C3)c2C1` (configuration not stated), “in the range around 300 nM”.

On to `CC1Cc2[nH]nc(C3CCCC3)c2CN1C(=O)Nc1ccc(F)c(Br)c1` (configuration not stated), for which the concentration giving a half-maximal response (EC50) result was “in the range around 55 nM”.

With `O=C(Nc1cccc(Br)c1F)N1CCc2[nH]nc(C3CCC3)c2C1`, the EC50 result was “in the range around 55 nM”. Same read-out and setting: with `O=C(Nc1ccc(F)c(Cl)c1)N1CCc2[nH]nc(C3CCC3)c2C1` the entry was “in the range around 55 nM”; with `CC(C)c1n[nH]c2c1CN(C(=O)Nc1cccc(Cl)c1)CC2`, “in the range around 300 nM”; with `Cc1cccc(NC(=O)N2Cc3c(C4CCCC4)n[nH]c3CC2C)c1` (configuration not stated), “in the range around 55 nM”. The same measure, in the same setting: with `Cc1cc(NC(=O)N2Cc3c(C4CCC4)n[nH]c3CC2C)ccc1F` (configuration not stated) the entry was “in the range around 55 nM”; with `O=C(Nc1ccnc(Br)c1F)N1CCc2[nH]nc(C3CCC3)c2C1`, “in the range around 300 nM”; with `O=C(Nc1ccc(F)c(F)c1)N1CCc2[nH]nc(C3CCC3)c2C1`, “in the range around 300 nM”. On to `CC1Cc2[nH]nc(C3CCC3)c2CN1C(=O)Nc1cccc(Br)c1` (configuration not stated), for which the EC50 result was “in the range around 55 nM”. On the same count and under the same terms, with `CC1Cc2[nH]nc(C3CCCC3)c2CN1C(=O)Nc1ccc(F)c(C#N)c1` (configuration not stated) the entry was “in the range around 55 nM”. Still for that read-out and setting: with `O=C(Nc1ccc(F)c(Br)c1)N1CCc2[nH]nc(C34CCCC3C4)c2C1` (configuration not stated) the entry was “in the range around 55 nM”. On the same count and under the same terms, with `O=C(Nc1ccnc(Cl)c1F)N1CCc2[nH]nc(C3CCC3)c2C1` the entry was “in the range around 300 nM”; with `Cc1cc(NC(=O)N2CCc3[nH]nc(C45CCCC4C5)c3C2)ccc1F` (configuration not stated), “in the range around 55 nM”; with `O=C(Nc1ccc(F)c(Br)c1)N1CCc2[nH]nc(C3CCC3)c2C1`, “in the range around 55 nM”. For `O=C(Nc1cccc(Cl)c1)N1CCc2[nH]nc(C3CC3)c2C1`, the EC50 entry is “in the range around 300 nM”. For the compound `CC(C)(C)c1n[nH]c2c1CN(C(=O)Nc1cccc(Cl)c1)CC2`, the EC50 entry is “in the range around 300 nM”. With `CC1Cc2[nH]nc(C3CCCO3)c2CN1C(=O)Nc1cccc(Cl)c1` (configuration not stated), the concentration for a half-maximal effect (EC50) result was “in the range around 55 nM”. For the compound `CC1Cc2[nH]nc(C3CCC3)c2CN1C(=O)Nc1cccc(Br)c1F` (configuration not stated), the EC50 entry was “in the range around 300 nM”. For the compound `Cc1cc(NC(=O)N2CCc3[nH]nc(C4CCC4)c3C2)ccc1F`, the EC50 result was “in the range around 55 nM”. Still for that read-out and setting: with `CCC(F)(F)c1n[nH]c2c1CN(C(=O)Nc1cccc(Cl)c1)CC2` the entry was “in the range around 300 nM”; with `N#Cc1cccc(NC(=O)N2CCc3[nH]nc(C45CCCC4C5)c3C2)c1F` (configuration not stated), “in the range around 55 nM”; with `CC1Cc2[nH]nc(C3CCCO3)c2CN1C(=O)Nc1ccc(F)c(C#N)c1` (configuration not stated), “in the range around 300 nM”.

Take `O=C(Nc1cccc(Br)c1)N1CCc2[nH]nc(C3CCC3)c2C1`: the EC50 result was “in the range around 55 nM”. On the same count and under the same terms, with `CC1Cc2[nH]nc(C3CCC3)c2CN1C(=O)Nc1ccc(F)c(F)c1` (configuration not stated) the entry was “in the range around 55 nM”; with `CC(C)(O)c1n[nH]c2c1CN(C(=O)Nc1cccc(Cl)c1)CC2`, over 10000 nM; with `CC1Cc2[nH]nc(C3CCC3)c2CN1C(=O)Nc1ccc(F)c(C#N)c1` (configuration not stated), “in the range around 55 nM”. Same read-out and setting: with `CC1(c2n[nH]c3c2CN(C(=O)Nc2cccc(Cl)c2)CC3)CCC1` the entry was “in the range around 55 nM”; with `O=C(Nc1cccc(Cl)c1)N1CCc2[nH]nc(O)c2C1`, over 10000 nM; with `C=C(C)c1n[nH]c2c1CN(C(=O)Nc1ccnc(Cl)c1F)CC2`, “in the range around 300 nM”. The same measure, in the same setting: with `Cc1cc(NC(=O)N2Cc3c(C4CCCC4)n[nH]c3CC2C)ccc1F` (configuration not stated) the entry was “in the range around 55 nM”; with `CC1(c2n[nH]c3c2CN(C(=O)Nc2cccc(Cl)c2)CC3)CC1`, “in the range around 300 nM”. Regarding `C=C(C)c1n[nH]c2c1CN(C(=O)Nc1cccc(Cl)c1)CC2`, the concentration giving a half-maximal response (EC50) entry was “in the range around 55 nM”. Same read-out and setting: with `CC1Cc2[nH]nc(C3CCC3)c2CN1C(=O)Nc1ccc(F)c(Br)c1` (configuration not stated) the entry was “in the range around 55 nM”; with `C=C(C)c1n[nH]c2c1CN(C(=O)Nc1cccc(C)c1)CC2`, “in the range around 300 nM”.

As for `O=C(Nc1ccnc(Br)c1F)N1CCc2[nH]nc(C34CCCC3C4)c2C1` (configuration not stated), the concentration giving a half-maximal response (EC50) entry is “in the range around 55 nM”.

For `O=C(Nc1ccc(F)c(F)c1)N1CCc2[nH]nc(C34CCCC3C4)c2C1` (configuration not stated), the EC50 entry is “in the range around 300 nM”.
